Where two headings read alike, the source gives them in different places.
How the values were obtained:
[1] = Miscibility of diamines and triamines with water before and after CO2; format: physicochemical; conditions: 5:1 w/w water:additive; for miscibility with water After addition of CO2: CO2 90 min; for miscibility with water Before addition of CO2: room temperature
Experimental: A 5:1 w/w solution of water and the liquid additive (total volume 5 mL) were mixed together in a glass vial at room temperature. Whether the mixture formed one or two liquid phases was visually observed. Then CO2 was bubbled through the mixture via a single narrow gauge steel needle at a flow rate of ˜5 mL min^−1 for 90 min. Whether the mixture formed one or two phases was visually observed.

[2] = 4 M solution; cited from earlier work
[3] = Reversible protonation monitored by conductivity, fritted glass apparatus; format: physicochemical
Experimental: 1:1 v/v solutions of the various additives and distilled, deionised water were prepared in six dram glass vials and transferred to a fritted glass apparatus which acted as a reaction vessel. The fritted glass apparatus consisted of a long narrow glass tube leading to a fine glass frit having a diameter of approximately 4 cm. The other end of the glass frit was connected to a cylindrical glass tube which held the solution of the additive during contacting with the trigger gas. This apparatus allowed a multiple source of trigger gas bubbles to contact the solution, compared to the single point source of Example 5.
A trigger gas chosen from CO2, air or nitrogen was bubbled through the solution via the glass frit at a flow rate of 110 mL min^−1 as measured by a J&W Scientific ADM 2000 Intelligent Flowmeter (CA, USA). For each conductivity measurement, the solution was transferred back to a six dram vial, cooled to 298 K and measured in triplicate. Conductivity measurements were performed using a Jenway 470 Conductivity Meter (Bibby Scientific, NJ, US) having a cell constant of 1.02 cm^−1.

[4] = pH of 5% (w/v) kaolinite suspensions; format: physicochemical
Experimental: The pH of the following 5% (w/v) kaolinite suspensions were measured: CO2 blank and 1 mM TMDAB and 10 mM TMDAB after CO2-treatment. To investigate the effect of pH on suspension settling behaviour, 5% (w/v) kaolinite suspensions were prepared, and the pH of each suspension was adjusted with HCl and NaOH to match the pH of corresponding treatment conditions. To investigate the effect of ionic strength on suspension settling behaviour, pH was again corrected to match the pH of corresponding treatment conditions, and ionic strength was adjusted with NaCl or ammonium sulphate, assuming all basic sites on the diamine were protonated.

[5] = Zeta potential of suspended clay particles; format: physicochemical; conditions: for Zeta Potential: kaolinite clay
Experimental: (§1) Clay fines were weighed and placed into individual vials (0.025 g, Ward's Natural Science Establishment). Kaolinite and montmorillonite were used as received, but illite clay was ground into a powder using a mortar and pestle. Solutions containing additives were made with deionized water (18.2 MΩ/cm, Millipore) and 10 mL was added to the clay fines. A suspension was created using a vortex mixer and subsequently dispensed into a folded capillary cell. The zeta potential was measured using a Malvern Zetasizer instrument. The errors reported on the zeta potential values were the standard deviations of the zeta potential peaks measured.
(§2) Unless specified, all carbon dioxide treatments were conducted with the aqueous solutions prior to addition to the clay fines. For applicable measurements, ultra pure carbon dioxide (Supercritical CO2 Chromatographic Grade, Paxair) was bubbled through the solutions using a syringe.
Another experiment was performed in which CO2 was bubbled through a 1 mM aqueous solution of TMDAB that already contained clay fines (a method referred to as “switching in situ”).

[6] = Zeta potential of suspended clay particles; format: physicochemical
Experimental: as §1, §2

[7] = format: physicochemical
Experimental: Specifically, a 1:1:1 (v/v/v) mixture of DBU, water and compound was added to a six dram vial containing a magnetic stirrer and fitted with a rubber septa. […] A second narrow gauge steel needle was inserted to allow venting of the gaseous phase.
When the compound was THF, a single phase miscible liquid mixture was observed.

[8] = Solution conductivity before and after CO2; format: physicochemical
Experimental: The solution conductivities of the materials given below were measured. The mass of each material indicated was weighed into a 150 mL beaker charged with a stir bar along with 100 mL of ultra pure water. The solutions were stirred until visibly dissolved and their conductivity measured. […] All solutions were left to stir overnight to test reproducibility. Solution conductivities were re-recorded giving little change in values. CO2 was bubbled at 10 psi through a fine glass frit tube (to make bubble size as small as possible for greater surface area and therefore faster carbonation) with each solution for 30 minutes. In the case of TBAB and functionalized PMMA, significant amounts of bubbling were observed. Solution conductivities were re-recorded.

[9] = Viscosity with and without CO2 (capillary viscometer); format: physicochemical; conditions: 104.6 mg in 10 mL H2O
Experimental: In order to study the use of switchable water additives in a method and system for viscosity control, a switchable additive or other molecule of interest was placed in a 50 mL round-bottom flask equipped with a 1 cm magnetic stir-bar and placed on a stir-plate. […] The solution was then transferred in to a Technical Glass Products, Inc. C. F. Opage viscometer with either a 100 or 200 capillary tube. The measurements were taken at room temperature (i.e., from about 15-30° C.) and repeated twice. The solution was transferred back into the round bottom flask and CO2 was introduced to the mixture by bubbling for 30 minutes at a flow rate of 80 ml/min. The carbonated solution was then put into the viscometer and the viscosity was measured three times. The viscosity in centistokes (cS) was calculated from the times the solution took to run through the viscometer.

[10] = Switchable osmotic pressure (Zimm-Meyerson osmometer, hydrostatic pressure); format: physicochemical
Experimental: The switchable osmotic pressure measurements were conducted on a Zimm-Meyerson osmometer using Sterlitech UTC-80LB toray flat sheet membranes. A 0.1% (w/v) switchable polyamine solution in water was made by dissolving 20 mg of the corresponding polyamine in 20 mL deionized H2O. […] The system was closed with a lid and allowed to reach equilibrium overnight. Measurements of the capillary tube and the control capillary were taken. The draw solution was then taken out of the cell and transferred into a graduated cylinder. Both the draw solution and the solution of the outer cell were carbonated by bubbling CO2 with a gas dispersion tube for 1 h. The draw solution was transferred back into the glass cell of the osmometer, the system was closed and held under an atmosphere of CO2. A constant flow of CO2 was maintained using two gauche needles, one of them connected to a CO2 source with a flow rate of 10 ml/min. The heights taken were height differences of the capillary tube connected to the cell and the control capillary tube. Based on these heights the hydrostatic pressure was calculated using the equation: Π=ρhg where Π is the hydrostatic pressure, ρ is the density of the solution, h is the height of the water column and g is the force of gravity. Hydrostatic pressure is taken to be proportional to osmotic pressure of the solution at equilibrium.

[11] = Degree of protonation by CO2 in D2O by 1H NMR; format: physicochemical; conditions: 0.1 M in D2O
From the text: (§3) The spectrum was then acquired.
(§4) This process was repeated.

[12] = Degree of protonation of methylated spermine by carbonated water, 1H NMR; format: physicochemical; conditions: 0.1 M in D2O, room temperature, CO2
From the text: as §3, §4

[13] = 1 mM TMDAB + 1 h CO2 + […] N2 at 70° C.

In the case of `CCCN(CC)CCCCN(CC)CCC` [N,N′-diethyl-N,N′-dipropyl-1,4-diaminobutane], the “miscibility with water After addition of CO2” value [1] is reported as “miscible” and the “miscibility with water Before addition of CO2” value [1] is reported as “immiscible”.

In the case of `CN(C)CC1CC(CN(C)C)CC(CN(C)C)C1` (stereo not shown) [CHTDMA, 1,1′,1″-(cyclohexane-1,3,5-triyl)tris(N,N-dimethylmethanamine)], the “miscibility with water After addition of CO2” value [1] is reported as “miscible” and the “miscibility with water Before addition of CO2” value [1] is reported as “immiscible”.

For `[Cl-].[Cl-].[Mg+2]` [MgCl2], the osmotic pressure [2] is listed as 800 atm.

With `CN(C)CCCCN(C)C` [TMDAB, N,N,N′,N′-tetramethyl-1,4-diaminobutane] the reduction of conductivity ([3]; 1:1 v/v H2O:amine switched with CO2, 90 minutes at 80° C., N2 through glass frit) was “approximately 95%”, the pH ([4]; kaolinite Sample 2, 1 mM TMDAB) was 7.13 and the pH ([4]; kaolinite Sample 2, 1 mM TMDAB + CO2) was 4.75. For the same compound, the pH ([4]; kaolinite Sample 2, 10 mM TMDAB) was 10.41, the pH ([4]; kaolinite Sample 2, 10 mM TMDAB + CO2) was 5.95 and the “Zeta Potential, Switching externally” value ([5]; 1 mM TMDAB) was −39.6 ± 6.68 mV. For the same compound, the “Zeta Potential, Switching in situ” value ([5]; 1 mM TMDAB) was −38.9 ± 8.69 mV, the “Zeta Potential, Switching externally” value ([5]; 1 mM TMDAB + 1 h CO2) was −5.03 ± 4.46 mV and the “Zeta Potential, Switching in situ” value ([5]; 1 mM TMDAB + 1 h CO2) was −0.31 ± 4.15 mV. The “Zeta Potential, Switching externally” value [5, 13] was −25.0 ± 5.84 mV, the “Zeta Potential, Switching in situ” value [5, 13] was −32.5 ± 6.38 mV and the “Zeta Potential” value ([5]; 1 mM additive + […] CO2) was −5.03 ± 4.46 mV. The “Zeta Potential” value ([5]; 1 mM additive) was −39.6 ± 6.68 mV, the “Zeta Potential” value ([5]; 10 mM additive + […] CO2) was −3.35 ± 8.49 mV and the “Zeta Potential” value ([5]; 10 mM additive) was −50.7 ± 13.1 mV. The “Zeta Potential” value ([5]; 0.8 molal additive + 1 h CO2) was 2.29 mV, the “Zeta Potential” value ([5]; 0.8 molal additive) was −17.4 ± 3.92 mV and the “Zeta Potential” value ([6]; 1 mM additive + […] CO2, illite clay) was −4.69 ± 4.23 mV. For the same compound, the “Zeta Potential” value ([6]; 1 mM additive + […] CO2, montmorillonite clay) was −3.20 ± 4.61 mV, the “Zeta Potential” value ([6]; 1 mM additive, illite clay) was −39.5 ± 6.32 mV and the “Zeta Potential” value ([6]; 1 mM additive, montmorillonite clay) was −40.2 ± 6.87 mV. For the same compound, the “Zeta Potential” value ([6]; 10 mM additive + […] CO2, illite clay) was −3.12 ± 7.16 mV, the “Zeta Potential” value ([6]; 10 mM additive + […] CO2, montmorillonite clay) was 9.07 ± 4.18 mV and the “Zeta Potential” value ([6]; 10 mM additive, illite clay) was −48.2 ± 7.44 mV. For the same compound, the “Zeta Potential” value ([6]; 10 mM additive, montmorillonite clay) was −23.6 ± 5.68 mV, the “Zeta Potential” value ([6]; 0.8 molal additive + 1 h CO2, illite clay) was −4.56 mV and the “Zeta Potential” value ([6]; 0.8 molal additive + 1 h CO2, montmorillonite clay) was −5.52 mV. For the same compound, the “Zeta Potential” value ([6]; 0.8 molal additive, illite clay) was −26.0 ± 3.92 mV and the “Zeta Potential” value ([6]; 0.8 molal additive, montmorillonite clay) was −25.8 ± 4.14 mV.

With `CN(C)CCN(C)CCN(C)CCN(C)C` [HMTETA, 1,1,4,7,10,10-hexamethyl triethylenetetramine] the “conductivity of ionic form solution after N2 flushing” value ([3]; 1:1 v/v H2O:amine, N2 at 80° C., after 20 minutes) was “close to zero”.

In the case of `OC[C@H]1O[C@@](CO)(O[C@H]2O[C@H](CO)[C@@H](O)[C@H](O)[C@H]2O)[C@@H](O)[C@@H]1O` [sucrose], the osmotic pressure [2] is listed as “about 130 atm”.

In the case of `C1CCC2=NCCCN2CC1` [DBU, 1,8-diazabicyclo-[5.4.0]-undec-7-ene], the “solubility of non-ionic amidine form in water” value [7] is reported as “soluble in water”.

With `CCCN(CCC)CCCCN(CCC)CCC` [Pr2NCH2CH2CH2CH2NPr2, N,N,N′,N′-tetrapropyl-1,4-diaminobutane] the “miscibility with water After addition of CO2” value [1] was “immiscible” and the “miscibility with water Before addition of CO2” value [1] was “immiscible”.

In the case of `CN(C)CCCN` [H2N(CH2)3NMe2, 3-dimethylamino-1-propylamine], the “C after 30 mins CO2” value ([8]; CO2 bubbled at 10 psi, 30 minutes) is reported as 3360 μS/cm and the “Initial C” value ([8]; mass as listed in 100 mL ultra pure water) is reported as 398 μS/cm.

For `CCCC[N+](CCCC)(CCCC)CCCC.[Br-]` [[^nBu4N]Br, Tetra-n-butylammonium bromide], the “C after 30 mins CO2” value [8] was 1781 μS/cm and the “Initial C” value [8] was 1892 μS/cm.

With `CN(C)C1CCCCC1` [N,N-dimethylcyclohexylamine] the “viscosity without CO2” value [9] was 1.0 cS, the “viscosity with CO2” value ([9]; CO2 30 minutes) was 1.0 cS and the “hydrostatic pressure without CO2” value ([10]; control experiments, height before CO2 treatment) was 580 Pa. For the same compound, the “hydrostatic pressure with CO2” value ([10]; nominal 0.1% (w/v), carbonated 1 h, CO2 atmosphere) was 1550 Pa and the pressure increase ([10]; ratio with CO2 / without CO2) was 2.7.

In the case of `OCCN(CCO)CCN(CCO)CCO` [THEED, N,N,N′,N′-tetrakis(2-hydroxyethyl) ethylenediamine], the “% deprotonated” value ([11]; 2 hours N2 bubbling at 75° C.) is reported as 98% and the “% protonation” value ([11]; by 10 minutes CO2) is reported as 49%.

For `CCN(CC)CCCCN(CC)CC` [TEDAB, N,N,N′,N′-tetraethyl-1,4-diaminobutane], the “miscibility with water After addition of CO2” value [1] was “miscible” and the “miscibility with water Before addition of CO2” value [1] was “immiscible”.

Compound `CN(C)CCCN(C)CCCCN(C)CCCN(C)C` [MeSpe, N^1,N^1′-(butane-1,4-diyl)bis(N^1,N^3,N^3-trimethylpropane-1,3-diamine)] has a degree of protonation [12] of 93%.

In the case of `CN(C)Cc1cc(CN(C)C)cc(CN(C)C)c1` [1,3,5-C6H3(CH2NMe2)3, N,N,N′,N′,N″,N″-1,3,5-benzenetrimethanamine], the “miscibility with water After addition of CO2” value [1] is reported as “miscible” and the “miscibility with water Before addition of CO2” value [1] is reported as “miscible”.

Source: patent publication US10377647B2, “Systems and methods for use of water with switchable ionic strength” (Queen's University at Kingson, priority 2010, dated 2019)
